Laboratory results: patent publication US8962558B2, “Methods for reducing GnRH-positive tumor cell proliferation using the GnRH antagonist IN3” (priority 1997, dated 2015)
Where two headings read alike, the source gives them in different places.

Legend:
Glioblastoma multiforme = assay: Phase II study with ZOLADEX (Example 7); format: in vivo, human
Procedure: Patients with histologically confirmed Glioblastoma multiforme following a first operation were treated (also randomized controlled) with ZOLADEX® in the manner described by Jonat et al., 1995, European J. Cancer, 137-142. Following radiotherapy, the patients are assigned to two different groups. One group received treatment, for example with ZOLADEX® and one group without ZOLADEX® (or with Cetrorelix® and without Cetrorelix®, or with ANTIDE® and without ANTIDE®, or with […]® or without […]® etc.). The resulting clinical effects are similar to metastasized […] mammary carcinoma. The percentage of patients showing an actual significant therapy effect is evaluated according to the criteria of tumor volume, recidivation-free survival, overall survival following initial application of the compound, and Karnofsky and Spitzer indices in a clinical neurological examination and under consideration of the other examination criteria (Sposto, R., et al., 1989, J. Neurooncology, 7, 165-177, and Kirby, S., et al., 1995, J. Natl. Cancer Institute, 87, 1884-1888, 1995).

BLM melanoma cells [1] = assay: Cell proliferation studies, BLM cells; format: cell-based, human; conditions: 10^−11-10^−6 M, daily for 7 days
Procedure: BLM cells were plated at a density of 700 cells/cm^2 in […] in culture medium. Cells were allowed to attach and start growing for 3 days; the seeding media were then changed. Cells were treated daily (the drug was added to the medium every day), for 7 days, with LHRH-A (10^−11-10^−6 M); the medium was changed at every two days. At the end of the treatment, cells were collected and counted by hemocytometer.
To confirm the specificity of the action of LHRH-A on melanoma cell proliferation, it was investigated whether the effects of the LHRH agonist might be counteracted by a potent GnRH antagonist. A preliminary experiment was performed to select the dose of the GnRH antagonist (ANT) to be used. To this purpose, BLM cells were treated daily with ANT at different doses (10^−11-10^−6 M).) Cells were harvested and counted after 7 days of treatment. Subsequently, BLM cells were treated daily, for 7 days, with LHRH-A (10^−7 M), either in the absence or in the presence of ANT (10^−7 M). Cells were counted 7 days after the beginning of the treatment.
All proliferation experiments were performed in four to six replicates. The data obtained from three independent experiments were analyzed according to the Dunnett's test after one-way ANOVA.

BLM melanoma cells [2] = assay: Matrigel gel assay (invasion); format: cell-based, human; conditions: 10^−6 M; 4, 8 and 12 days
Procedure: This dose has been also used in previous papers analyzing the interaction between GnRH agonists and stimulatory growth factors in prostate cancer cells. Subconfluent BLM cells were collected by trypsinization, resuspended in culture medium and seeded in 20 μL (150,000 cells/drop) on the lid of a culture dish. The lid was then placed on a dish filled with 2 mL of culture medium and incubated at 37° C. for 48 h. Matrigel solution (80 μL, 2.7 mg/mL) was pipetted onto the bottom of wells of a 24-well culture dish, and left to set at 37° C. Cell aggregates were transferred over the cushion and then overlaid with additional 20 μL of Matrigel. The aggregates into Matrigel were covered with 400 μL culture medium in the absence or in the presence of LHRH-A (10^−6 M). The aggregates were then observed daily under a light microscope and at the end of the incubation time phase-contrast pictures of the aggregates were taken.

BLM melanoma cells [3] = assay: Chemomigration assay (Boyden's chamber); format: cell-based, human; conditions: 10^−6 M pretreatment for 5 days, FBS 5%
Procedure: The assay was performed using a 48-well Boyden's chamber, according to the manufacturer's instruction (Neuroprobe, Cabin John, Md.). Subconfluent BLM cells, grown in culture medium, were pretreated for 5 days with LHRH-A (10^−6 M) and harvested at the end of the treatment. BLM cell suspensions (10^5 cells/50 μL), resuspended in culture medium deprived of FBS, were placed in the open-bottom wells of the upper compartment of the chamber. Each pair of wells were separated by polyvinylpyrrolidone-free polycarbonate porous membrane (8-μm pores) pre-coated with gelatin (0.2 mg/mL in PBS). The chemoattractant (FBS 5%) was placed in the lower compartment of the chamber. The chamber was then kept for 4 h in the cell culture incubator. After that, the cells migrated through the pores, and adhered to the underside of the membrane, were fixed, stained (Diff-Quick kit, DADE, Dudingen, CH) and mounted onto glass slides. For quantitative analysis, six random objective fields of stained cells were counted for each well (8 wells/experimental group) and the mean number of migrating cells/mm^2 was calculated. The data obtained from four independent experiments were compared by ANOVA and Dunnett's test.

BLM cells = assay: In vivo study in nude mice inoculated with malignant melanoma, low dosage experiment; conditions: 100 μg per mouse daily, 2-3 weeks
Procedure: Sixteen male nude mice were injected s.c. in the flank with 1×10^6 (0.2 ml/mouse) BLM cells. The treatment started the same day: Eight mice received daily 100 μg […]® per mouse in 200 μl saline. Eight control mice were treated with 200 μl saline each. The treatment lasted 2-3 weeks. Every 2 to 3 days the volume of the tumors was determined by caliper.

U-87MG cells = format: cell-based, human; conditions: for inhibition versus controls: 7 days
Procedure: U-87MG cells were plated at a density of 1400 cells/cm^2 in […] in standard culture medium. Cells were allowed to attach and start growing for 3 days; the seeding media were then changed to experimental media. Cells were treated for 7 days with ZOLADEX® (10^−10-10^−6 M); medium was changed every two days. Following treatment, cells were collected and counted by hemocytometer. Data obtained from three independent experiments were analyzed according to the Dunnett's test after one-way ANOVA.

[4] = tested on: BLM melanoma tumor cell line implant; format: in vivo, nude mice
Procedure: In one series of experiments, nude mice bearing human melanoma tumor cell line xenotransplants were treated for two weeks with 100 μg of Goserelin daily, while a second group of mice was administered 200 μg of Goserelin daily, with an additional daily supplement given by subcutaneous injection. […] The in vivo tumor growth has three predominant characteristics: mitotic activity, dedifferentiation, and infiltration of cells into the surrounding tissue and vessels.
Results for this study are depicted in FIG. 21. These observations are in line with the previously shown inhibition of Matrigel invasion of BLM cells under Zoladex treatment, as described above. A histological investigation of the tumor before and after treatment has confirmed this finding (results not shown).
In another set of experiments, ZOLADEX® treatment was administered to mice for a period of four to eight weeks, with an additional GnRH antagonist treatment to avoid any tumor proliferation (i.e. flare up) following cessation of the therapy and to avoid tumor cell receptor depletion.

CC(C)C[C@H](NC(=O)[C@@H](COC(C)(C)C)NC(=O)[C@H](Cc1ccc(O)cc1)NC(=O)[C@H](CO)NC(=O)[C@H](Cc1c[nH]c2ccccc12)NC(=O)[C@H](Cc1cnc[nH]1)NC(=O)[C@@H]1CCC(=O)N1)C(=O)N[C@@H](CCCNC(=N)N)C(=O)N1CCC[C@H]1C(=O)NNC(N)=O [ZOLADEX®, D-Ser(tBu)^6Aza-Gly-LHRH]
reduction in tumor volume vs untreated control group (Glioblastoma multiforme; MRT and/or CAT scans): significantly higher reduction in tumor volume
overall survival following initial application vs untreated control group (Glioblastoma multiforme; in vivo): significantly longer overall survival
recidivation-free survival vs untreated control group (Glioblastoma multiforme; in vivo): significantly longer recidivation-free survival
cell proliferation (BLM melanoma cells [1]): significant and dose-dependent inhibition of cell proliferation
migration of the cells through the Matrigel (BLM melanoma cells [2]): completely abrogates
number of cells that migrate in response to the chemoattractant (BLM melanoma cells [3]): significantly decreased
tumors smaller with respect to the controls (BLM cells): 15-20%
inhibition versus controls (U-87MG cells; 10^−6M): about 45%
inhibition versus controls (U-87MG cells; 10^−8M): about 23%
proliferation rate (U-87MG cells; significantly effective at 10^−8 to 10^−6 M): significant decrease of the proliferation rate
reduction in tumor weight ([4]; 100 μg or 200 μg daily, after two weeks, both groups): 50%
persistence of tumor growth inhibition despite cessation of treatment ([4]; 100 μg/day or 200 μg/day): ~4 weeks
growth inhibitory effect compared with 100 μg/day ([4]; 200 μg/day): even more powerful growth inhibitory effect
tumor growth once treatment has stopped ([4]; after two weeks (16 days) of treatment): rebound of tumor growth (flare up) is observed
inhibition of BLM cell growth ([4]; mouse, in vivo): about 50%
